We go through 1 compound from patent US9650616B2, “Methods for increasing grain yield” (University of Florida Research Foundation, Inc., priority 2014, dated 2017).

Positions count from the first letter of the chain named. Like-named read-outs stand apart in the source and are kept apart here.

By Km is commonly meant the concentration of substrate that gives half-maximal velocity.

The target of assay [1] is T1, maize endosperm AGPase, large subunit variant D161G (numbering of SEQ ID NO: 20) (Zea mays, UniProt P55241+Q84PF5, D161G).
T1 sequence (P55241 46-516 D161G): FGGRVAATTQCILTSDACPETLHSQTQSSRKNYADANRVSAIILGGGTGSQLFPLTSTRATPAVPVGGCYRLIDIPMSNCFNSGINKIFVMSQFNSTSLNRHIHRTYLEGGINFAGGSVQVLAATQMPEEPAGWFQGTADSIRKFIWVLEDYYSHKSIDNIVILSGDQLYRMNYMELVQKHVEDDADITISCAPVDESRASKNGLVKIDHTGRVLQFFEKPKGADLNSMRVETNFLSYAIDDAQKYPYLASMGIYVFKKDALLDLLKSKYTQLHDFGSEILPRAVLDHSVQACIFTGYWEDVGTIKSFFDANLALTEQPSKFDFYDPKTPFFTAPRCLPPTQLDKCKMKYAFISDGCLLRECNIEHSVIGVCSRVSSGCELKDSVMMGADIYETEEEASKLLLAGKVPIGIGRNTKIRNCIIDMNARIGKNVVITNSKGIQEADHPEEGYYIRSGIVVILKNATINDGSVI
T1 sequence (Q84PF5 1-474): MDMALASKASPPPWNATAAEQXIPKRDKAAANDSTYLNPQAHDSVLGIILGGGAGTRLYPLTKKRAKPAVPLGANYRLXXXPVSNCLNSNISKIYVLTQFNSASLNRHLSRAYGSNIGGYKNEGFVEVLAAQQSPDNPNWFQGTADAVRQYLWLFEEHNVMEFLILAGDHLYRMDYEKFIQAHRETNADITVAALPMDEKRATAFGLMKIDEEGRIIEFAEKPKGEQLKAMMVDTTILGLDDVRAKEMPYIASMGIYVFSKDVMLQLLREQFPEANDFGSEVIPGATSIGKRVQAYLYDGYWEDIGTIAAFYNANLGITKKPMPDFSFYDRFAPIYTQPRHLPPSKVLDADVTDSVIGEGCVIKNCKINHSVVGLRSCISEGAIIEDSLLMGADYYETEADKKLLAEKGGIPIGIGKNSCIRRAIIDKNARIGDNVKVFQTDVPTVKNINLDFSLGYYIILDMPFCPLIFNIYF
Kind of assay: Apparent kinetic constants with 3-PGA, 37° C., D161G. In kind it is biochemical. From the text:
The small and large subunit plasmids of maize endosperm AGPase (pMONcBt2 and pMONcSh2, respectively) (Giroux et al., 1996) were expressed in E. coli AC70R1-504 cells (Iglesias et al., 1993) as previously described (Boehlein et al., 2008).
An endpoint assay was used to determine the rate of the AGPase reaction by coupling the formation of PPi to a decrease in NADH concentration (Boehlein et al., 2008). […] The Michaelis constants (Km) were obtained by varying one substrate in the presence of saturating concentrations of the second substrate. The activation constants were obtained by varying the activator at fixed levels of both substrates. All reactions were performed at 37° C. and mixes were prewarmed before starting the reaction with enzyme. […] The absorbance at 340 nm was monitored after 30 min and the amount of PPi produced was determined from a standard curve using PPi in complete reaction mixtures lacking AGPase. Blank samples contained complete reaction mixtures without enzyme and the change in absorbance between the blank and the reaction was used to calculate the amount of PPi produced. […]
The apparent Michaelis constant and maximum velocity of each reaction was calculated from a V vs. S plots using nonlinear regression analysis and the following equation, v=VmaxS/(Km+S), where v is the measured velocity, Vmax is the maximum velocity, S is the substrate concentration. […]

Assay [2] deals with T2, maize endosperm AGPase, large subunit variant GGR (Q96G, D161G, A443R; numbering of SEQ ID NO: 20) (Zea mays, UniProt P55241+Q84PF5, A443R/D161G/Q96G).
T2 sequence (P55241 46-516 A443R/D161G/Q96G): T1 sequence (P55241 46-516 D161G) with Q51G, A398R
T2 sequence (Q84PF5 1-474): T1 sequence (Q84PF5 1-474)
The experiment in a line: Pi inhibition in the absence of 3-PGA, GGR. In kind it is biochemical. As for the experimental part:
Next, the kinetics of the GGR mutant were further investigated by following Pi inhibition in the presence and absence of 3-PGA. Experiments were performed by keeping both substrates constant and non-saturating at several fixed concentrations of Pi.
A similar examination of the Pi inhibition was then followed with GGR in the absence of 3-PGA.

Take `Nc1ncnc2c1ncn2[C@@H]1O[C@H](COP(=O)(O)OP(=O)(O)OP(=O)(O)O)[C@@H](O)[C@H]1O` [ATP]: the Km in assay [1] (read-out: ATP Km, with 3-PGA, 37° C.) came out at 44 µM; in assay [1] (read-out: Km for ATP, in the presence of 3-PGA) it was 40 µM; in assay [2] (read-out: Km (ATP), ATP varied, Pi inhibition, NC), 540 µM. Moreover, the “ATP Km, fold lower than wt AGPase” value in assay [2] (Pi inhibition assay) is “approximately 40 fold”.
